Test results from patent publication US11926613B2, “Kinase inhibitors for the treatment of central and peripheral nervous system disorders” (UNIVERSITY OF MIAMI, priority 2017, dated 2024).

Tests used:
[1] = tested on: neurons from hippocampi of E18 rat embryos; assay: Neurite growth length (% NTL) in cultured E18 rat hippocampal neurons, 9-point dose response, 48 hours; assay type: cell-based; details: Rattus norvegicus, Neuron, 48 h; for activity at 0.078 µM: 78 nM; for activity at 0.156 µM: 156 nM; for activity at 0.312 µM: 312 nM; for activity at 0.625 µM: 625 nM
Method: PRE-COATING CULTURE PLATES: On the day before the experiment, 96-well plates were pre-coated by plating 50 μl of Poly-D-lysine solution (PDL, 0.5 mg/mL) in each well. The next morning, the plates were washed four or five times with HBSS or PBS (150 μl/rinse), then left in buffer until cell plating
PREPARING THE CELLS: A timed pregnant rat carrying E18 embryos was euthanized using an IACUC approved method. In a laminar flow hood, the embryos were removed and placed in a petri dish containing Hank's Balanced Salt Solution (HBSS) with 20 mM HEPES, pH 7.3. Pup brains were dissected (see Meberg et al., 2003) and hippocampi were collected in 15 mL a conical tube containing Hibernate E with SM1 (2% v/v).
Dissociation media was prepared by combining 4.5 mL of Hibernate E (without SM1) with 0.5 mL of trypsin and 100 μl of DNAse solution. The medium over the hippocampi was carefully removed and replaced with dissociation solution, then incubated at 37° C. for 15-20 minutes, occasionally swirling the tube.
Using flame polished cotton plugged Pasteur pipettes, the dissociation media was removed, and then 5 mL of Hibernate E containing SM1 were added. The tube was swirled to thoroughly wash the tissue. The tissue was allowed to settle to the bottom of the tube, and the rinse solution was carefully removed. This step was repeated 5 times to dilute out trypsin and DNAse and remove any debris from lysed cells.
The final rinse media was removed from the tube and 1 pipette-full (1-2 mL) of Hibernate E with SM1 was added. Using the flame-polished Pasteur pipette (pre-wetted with rinse media), the tube was triturated until all cells had dissociated and no visible chunks of tissue remained. Fewer than ten triturations were typically performed. The volume was adjusted to 8-12 mL using Hibernate E containing SM1, the well was mixed and cell concentration was determined.
PLATING: The cells were diluted in culture media (NbActiv4 Cell-culture media) to a final concentration of 10,000 cells/mL. The HBSS was aspirated from PDL coated plates, and 150 μL of cell solution was loaded in the middle 48 wells at 1500 cells per well. Water was loaded in the outer wells to decrease evaporation from edge wells. Cells were allowed to adhere for 2 hours in tissue culture incubator prior to treatment.
TREATMENT: Compounds were diluted to various concentrations to provide 9 dose response concentrations of 20 μM, 10 μM, 5, μM, 2.5 μM, 1.25 μM, 0.625 μM, 0.3125 μM, 0.15625 μM, and 0.078125 μM. The plates were cultured for 48 hours, exposed to the compound at the various dose response concentrations.
FIXING THE CULTURES: The culture medium was removed from the plates and immediately replaced with 100-200 μl of warm (37° C.) 4% paraformaldehyde (PFA) solution in phosphate-buffered saline (PBS). The cells were fixed for 15-20 minutes at room temperature, and then rinsed with PBS (200 μl/well×3).
STAINING AND IMAGING: The PBS was removed and replaced with 100 μl of blocking/permeabilization buffer (PBS, 0.2% fish gelatin, 0.03% Triton X-100, 0.02% NaN3), then incubated overnight at 4° C. To this was added 100 μl of primary antibody solution (mouse anti-Beta III tubulin in blocking buffer) and incubate overnight at 4° C. The wells were rinsed with PBS (200 μl×3), which was then removed and replaced with 100 μl of secondary antibody solution (Goat anti-mouse Alexa 488, 10 μg/ml Hoechst 33342, 0.2% fish gelatin, 0.02% azide, in PBS). The plate was shaken gently on a rotating shaker for 2 hours, then rinsed with PBS (200 μl×5).
The plate was imaged using a Cellomics ArrayScan VTI in 2 different channels for nuclear staining (Hoechst) and cell body/neurite staining (βIII-tubulin). Typically, nine fields per well were imaged with a 5× objective and automatically traced by the Neuronal Profiling Bioapplication. To get reproducible results, at least 200-300 valid neurons were measured per condition. […]

Primary Neurons = assay: HCS neurite outgrowth assay (High Content Screening with Primary Neurons); assay type: cell-based; details: Primary neuron

O=C(Nc1ccncc1NC(=O)c1ccncc1)c1ccc(C(=O)c2ccccc2)cc1 [Example A3, N-[4-(4-benzoylbenzamido)pyridin-3-yl]pyridine-4-carboxamide]
activity at 0.078 µM [1]: 98.3%
activity at 0.156 µM [1]: 99.9%
activity at 0.312 µM [1]: 96.3%
activity at 0.625 µM [1]: 92.6%
activity at 1.25 µM [1]: 96.7%
activity at 2.5 µM [1]: 95.1%
activity at 5 µM [1]: 93.6%
activity at 10 µM [1]: 92.9%
activity at 20 µM [1]: 96.6%
EC50 (Primary Neurons): 0.798 µM

COc1ccc(OC)c(C(=O)c2ccc(C(=O)Nc3ccccc3NC(=O)c3ccncc3)cc2)c1F [Example A4, N-{2-[4-(2-fluoro-3,6-dimethoxybenzoyl)benzamido]phenyl}pyridine-4-carboxamide]
activity at 0.078 µM [1]: 102%
activity at 0.156 µM [1]: 99%
activity at 0.312 µM [1]: 110%
activity at 0.625 µM [1]: 93.2%
activity at 1.25 µM [1]: 105%
activity at 2.5 µM [1]: 114%
activity at 5 µM [1]: 114%
activity at 10 µM [1]: 132%
activity at 20 µM [1]: 161%
EC50 (Primary Neurons): 9.64 µM

COc1ccc(O)c(C(=O)c2ccc(C(=O)Nc3ccccc3NC(=O)c3ccncc3)cc2)c1F [Example A5, N-{2-[4-(2-fluoro-6-hydroxy-3-methoxybenzoyl)benzamido]phenyl}pyridine-4-carboxamide]
activity at 0.078 µM [1]: 97.8%
activity at 0.156 µM [1]: 102%
activity at 0.312 µM [1]: 97.2%
activity at 0.625 µM [1]: 102%
activity at 1.25 µM [1]: 102%
activity at 2.5 µM [1]: 113%
activity at 5 µM [1]: 116%
activity at 10 µM [1]: 124%
activity at 20 µM [1]: 132%
EC50 (Primary Neurons): 10.4 µM

O=C(Nc1ccccc1NC(=O)c1ccc(C(=O)c2ccccc2)cc1)c1ccncc1 [Example A6, N-[2-(4-benzoylbenzamido)phenyl]pyridine-4-carboxamide]
activity at 0.078 µM [1]: 94.7%
activity at 0.156 µM [1]: 106%
activity at 0.312 µM [1]: 83%
activity at 0.625 µM [1]: 95.4%
activity at 1.25 µM [1]: 94.1%
activity at 2.5 µM [1]: 92.9%
activity at 5 µM [1]: 105%
activity at 10 µM [1]: 107%
activity at 20 µM [1]: 121%
EC50 (Primary Neurons): 1.67 µM

O=C(c1ccccc1)c1ccc(C(=O)N2CCN(C(=O)c3ccncc3)CC2)cc1 [Example A7, 1-(4-benzoylbenzoyl)-4-(pyridine-4-carbonyl)piperazine]
activity at 0.078 µM [1]: 97%
activity at 0.156 µM [1]: 94.8%
activity at 0.312 µM [1]: 95.7%
activity at 0.625 µM [1]: 91.2%
activity at 1.25 µM [1]: 90.8%
activity at 2.5 µM [1]: 88.3%
activity at 5 µM [1]: 92%
activity at 10 µM [1]: 86.4%
activity at 20 µM [1]: 91.8%
EC50 (Primary Neurons): 1.67 µM

COc1ccc(OC)c(C(=O)c2ccc(C(=O)N3CCN(C(=O)c4ccncc4)CC3)cc2)c1F [Example A8, 1-[4-(2-fluoro-3,6-dimethoxybenzoyl)benzoyl]-4-(pyridine-4-carbonyl)piperazine]
activity at 0.078 µM [1]: 99.2%
activity at 0.156 µM [1]: 98.7%
activity at 0.312 µM [1]: 96.4%
activity at 0.625 µM [1]: 99%
activity at 1.25 µM [1]: 92.9%
activity at 2.5 µM [1]: 94.4%
activity at 5 µM [1]: 93.8%
activity at 10 µM [1]: 93.2%
activity at 20 µM [1]: 81.6%
EC50 (Primary Neurons): > 20 µM

COc1ccc(O)c(C(=O)c2ccc(C(=O)N3CCN(C(=O)c4ccncc4)CC3)cc2)c1F [Example A9, 3-fluoro-4-methoxy-2-{4-[4-(pyridine-4-carbonyl)piperazine-1-carbonyl]benzoyl}phenol]
activity at 0.078 µM [1]: 94.5%
activity at 0.156 µM [1]: 91.5%
activity at 0.312 µM [1]: 90.7%
activity at 0.625 µM [1]: 96.6%
activity at 1.25 µM [1]: 88%
activity at 2.5 µM [1]: 98.9%
activity at 5 µM [1]: 98.3%
activity at 10 µM [1]: 89.6%
activity at 20 µM [1]: 89.1%
EC50 (Primary Neurons): 4.92 µM

O=C(N[C@@H]1c2ccccc2C[C@H]1NC(=O)c1ccncc1)c1ccc(C(=O)c2ccccc2)cc1 [Example A11, N-[(1R,2R)-1-(4-benzoylbenzamido)-2,3-dihydro-1H-inden-2-yl]pyridine-4-carboxamide]
activity at 0.078 µM [1]: 104%
activity at 0.156 µM [1]: 102%
activity at 0.312 µM [1]: 87.4%
activity at 0.625 µM [1]: 93.8%
activity at 1.25 µM [1]: 91.7%
activity at 2.5 µM [1]: 98.5%
activity at 5 µM [1]: 94.6%
activity at 10 µM [1]: 110%
activity at 20 µM [1]: 110%
EC50 (Primary Neurons): 5.58 µM

COc1ccc(OC)c(C(=O)c2ccc(C(=O)N[C@@H]3c4ccccc4C[C@H]3NC(=O)c3ccncc3)cc2)c1F [Example A12, N-[(1R,2R)-1-[4-(2-fluoro-3,6-dimethoxybenzoyl)benzamido]-2,3-dihydro-1H-inden-2-yl]pyridine-4-carboxamide]
activity at 0.078 µM [1]: 96.6%
activity at 0.156 µM [1]: 90.7%
activity at 0.312 µM [1]: 91.2%
activity at 0.625 µM [1]: 93.1%
activity at 1.25 µM [1]: 90.6%
activity at 2.5 µM [1]: 91%
activity at 5 µM [1]: 106%
activity at 10 µM [1]: 98.6%
activity at 20 µM [1]: 119%
EC50 (Primary Neurons): > 20 µM

COc1ccc(O)c(C(=O)c2ccc(C(=O)N[C@@H]3c4ccccc4C[C@H]3NC(=O)c3ccncc3)cc2)c1F [Example A14, N-[(1R,2R)-1-[4-(2-fluoro-6-hydroxy-3-methoxybenzoyl)benzamido]-2,3-dihydro-1H-inden-2-yl]pyridine-4-carboxamide]
activity at 0.078 µM [1]: 105%
activity at 0.156 µM [1]: 111%
activity at 0.312 µM [1]: 118%
activity at 0.625 µM [1]: 119%
activity at 1.25 µM [1]: 127%
activity at 2.5 µM [1]: 126%
activity at 5 µM [1]: 140%
activity at 10 µM [1]: 154%
activity at 20 µM [1]: 175%
EC50 (Primary Neurons): > 20 µM

O=C(N[C@@H]1CCC[C@H]1NC(=O)c1ccc(C(=O)c2ccccc2)cc1)c1ccncc1 [Example A15, N-[(1R,2R)-2-(4-benzoylbenzamido)cyclopentyl]pyridine-4-carboxamide]
activity at 0.078 µM [1]: 98.5%
activity at 0.156 µM [1]: 106%
activity at 0.312 µM [1]: 111%
activity at 0.625 µM [1]: 114%
activity at 1.25 µM [1]: 110%
activity at 2.5 µM [1]: 107%
activity at 5 µM [1]: 110%
activity at 10 µM [1]: 122%
activity at 20 µM [1]: 136%
EC50 (Primary Neurons): 7.84 µM

COc1ccc(OC)c(C(=O)c2ccc(C(=O)N[C@@H]3CCC[C@H]3NC(=O)c3ccncc3)cc2)c1F [Example A17, N-[(1R,2R)-2-[4-(2-fluoro-3,6-dimethoxybenzoyl)benzamido]cyclopentyl] pyridine-4-carboxamide]
activity at 0.078 µM [1]: 99.7%
activity at 0.156 µM [1]: 100%
activity at 0.312 µM [1]: 104%
activity at 0.625 µM [1]: 99.8%
activity at 1.25 µM [1]: 103%
activity at 2.5 µM [1]: 113%
activity at 5 µM [1]: 112%
activity at 10 µM [1]: 121%
activity at 20 µM [1]: 119%
EC50 (Primary Neurons): 1.83 µM

COc1ccc(O)c(C(=O)c2ccc(C(=O)N[C@@H]3CCC[C@H]3NC(=O)c3ccncc3)cc2)c1F [Example A18, N-[(1R,2R)-2-[4-(2-fluoro-6-hydroxy-3-methoxybenzoyl)benzamido]cyclopentyl] pyridine-4-carboxamide]
activity at 0.078 µM [1]: 113%
activity at 0.156 µM [1]: 115%
activity at 0.312 µM [1]: 119%
activity at 0.625 µM [1]: 120%
activity at 1.25 µM [1]: 121%
activity at 2.5 µM [1]: 133%
activity at 5 µM [1]: 130%
activity at 10 µM [1]: 131%
activity at 20 µM [1]: 140%
EC50 (Primary Neurons): 6.61 µM
